The source of these data is patent publication US20210308077A1, “COMBINATIONS INCLUDING BETA-ADRENORECEPTOR AGONISTS FOR TREATMENT OF PARKINSON`S DISEASE AND MOVEMENT DISORDERS” (The Brigham and Women`s Hospital, Inc., priority 2017, published 2021).

The subject of one test is MPTP mouse model. The test is described as follows: controlled trial in the MPTP mouse model. The format is in vivo. To be noted: MPTP 20 mg/kg i.p. five days; clenbuterol 10 mg/kg i.p. once then oral gavage daily for two weeks. The method, then: Male C57bl/6 mice (8-10 weeks old) were analyzed. N-methyl-4-phenyl-1,2,3,6-tetrahydropyridine (MPTP-HCl; 20 mg/kg, measured as free base; Sigma, St. Louis, Mo.) was administered to mice intraperitoneally once per day for five consecutive days similar to described previously (26,36). Eight MPTP-treated mice assigned to the clenbuterol treatment group received one 10 mg/kg i.p. injection of clenbuterol (two days prior to MPTP treatment start) and then clenbuterol via oral gavage (10 mg/kg) daily for two weeks (starting on the day of the first MPTP treatment). Another eight MPTP-treated mice assigned to the vehicle treatment group received only oral drinking water (without clenbuterol). […]
After overnight postfixation in 4% paraformaldehyde, brains were cryoprotected in 30% sucrose before cryosectioning into […] (used for stereology) free-floating sections, obtained as described previously (36). […] TH+ cells were analyzed by sterological estimates as described previously (36). Briefly, the total number of TH+neurons in the SNc was calculated by optical fractionation using Stereo Investigator (version 6; MicroBrightField, Williston, Vt.). […] Total number of TH+ neurons was determined using the optical fractionator. Adjacent tissue was also stained using cresyl violet (Sigma, 0.01% for 5 min) to confirm cell loss as assessed by TH analysis.

Test [1] has as its system NPCs carrying the SNCA triplication. The experiment in a line: Resazurin viability assay in SNCA-triplication NPCs exposed to rotenone. Format: cell-based, human. To be noted: 20 μM rotenone, 20 μM clenbuterol. The method, then: Patient-derived NPCs carrying the familial SNCA triplication were generated as described previously (28). NPCs were seeded at […] in 96-well plates (Greiner Cellcoat μClear) for HTS plate reader analysis (Polarstar Omega, BMG). For experiments with toxicants and inhibitors, NPCs were cultured under the following conditions for 18 hours unless specified differently in the experiment procedures: Standard NPC growth medium, growth medium plus 20 μM rotenone (Sigma).
For the Plate Reader HTS, each experiment was conducted with 6 replicates per cell line and treatment regimen. NPCs were treated with 20 μM clenbuterol for four days. Signals from individual wells were acquired with integration of fluorescence signals over 1 second duration by bottom read in orbital mode (8-spot measurements with 2 mm radius). Data analysis was performed using BMG Mars software. For data analysis of individual experiments, the mean±SD was plotted using GraphPad7. Non-directional Student's t-test was used for direct statistical comparisons. […]
For the Resazurin assay for reduction potential by NADPH levels, NPCs were prepared as above and then loaded with 3 μM C12-Resazurin (Ex/Em: 563 nm/587 nm) (Life Technologies) in medium (see above), for 30 min at 37° C. […] Relative C12-Resazurin fluorescence intensities were normalized to Hoechst 33342 fluorescence.
Background: The colour change of resazurin is a common sign of viable cells or microbes.

As to `CC(C)(C)NCC(O)c1cc(Cl)c(N)c(Cl)c1` (stereo not drawn) [clenbuterol], in the test on MPTP mouse model, the “TH+ neurons in the SNpc” value is listed as “abrogated the MPTP-induced loss of TH+ neurons” and the “cresyl-violet (CV) stained cells in the SNpc” value was “blocked the loss of cresyl-violet (CV) stained cells”. The viability result in test [1] is on record as “rescued viability”.
